Experimental data: patent EP3856897B1 (Anadolu Universitesi, priority 2018, dated 2020)
Read-outs that look alike come from different tables or passages of the source.

Legend:
[1] = molecular target: T1, recombinant Tetrahymena thermophila Glutathione S Transferase Mu34 (TtGSTm34-8xHis) enzyme, SEQ ID NO: 1 (Tetrahymena thermophila, UniProt I7M2D2); assay: Enzyme kinetics of recombinant TtGSTm34-8xHis for substrates GSH and CDNB (spectrophotometric at 340 nm, Lineweaver-Burk); format: biochemical; settings: 200 mM potassium phosphate buffer, 25°C; for Km: 7 substrate concentrations 0.1125-3.6 mM, the other substrate (GSH or CDNB) held at 0.9 mM, Lineweaver-Burk graph; for Kcat: kcat = Vmax/Et, the other substrate held at 0.9 mM
T1 sequence (I7M2D2 39-257): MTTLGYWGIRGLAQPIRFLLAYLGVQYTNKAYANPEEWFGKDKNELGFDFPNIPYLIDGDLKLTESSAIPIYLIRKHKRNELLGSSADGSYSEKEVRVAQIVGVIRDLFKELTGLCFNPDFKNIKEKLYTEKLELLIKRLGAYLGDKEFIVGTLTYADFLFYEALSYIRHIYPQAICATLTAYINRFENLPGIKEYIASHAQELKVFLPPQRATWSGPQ
Description: Determination of GST enzyme activities of affinity purified proteins was performed spectrophotometrically in the presence of 1-chloro-2,4-dinitrobenzene (CDNB) as substrate. […] The enzyme activities were measured with BioTek The Synergy ™ HT Elisa device using Gen5 software. The O.D values for enzyme activity were determined at 340 nm for 30 minutes with 2 minutes intervals, using BioTek The Synergy™ HT Elisa Reader kinetics program.
Unit value of activity is defined as the amount of enzyme that catalyzes 1 µmol substrate at 25°C (CDNB extinction coefficient340 nm = 9.6 mM^-1 cm^-1). The enzyme activities were first calculated in terms of U/ml. Then these values were divided by protein concentrations that were determined by Bradford method (Pierce™ Coomassie Plus Bradford Assay Reagent Cat no: 23238). This way specific activities were calculated in terms of U/mg.
Then activity measurements were carried out in 200 mM potassium phosphate buffer at 25°C for 7 different CDNB concentrations: 0,1125 mM, 0,225 mM, 0,45 mM, 0,9 mM, 1,8 mM, 2,7 mM ve 3,6 mM. A 1/V^- 1 [CDNB] Lineweaver-Burk graph was drawn according to the results obtained (Figure 8). With this graphical aid, Km and Vmax values for CDNB were determined.
These calculations were followed by quantitative protein assay (Bradford) and total enzyme amount (Et) was determined. Kcat value, which reflects the enzyme turnover number was calculated using the formula given below: kcat = Vmax /Et [formula]
One way of comparing the catalytic effects of various enzymes or the conversion of different substrates to the product with the same enzyme is to find the specificity constant (V0) for the reactions. The specificity constant is calculated by the following formula: V0 = kcat /km [formula]

[2] = molecular target: T2, mu class glutathione S-transferase from Manila clam Ruditapes philippinarum (RpGSTµ) (Ruditapes philippinarum, UniProt G9HSP7); settings: from Bathige et al., 2014, cited from earlier work
T2 sequence (G9HSP7 1-217): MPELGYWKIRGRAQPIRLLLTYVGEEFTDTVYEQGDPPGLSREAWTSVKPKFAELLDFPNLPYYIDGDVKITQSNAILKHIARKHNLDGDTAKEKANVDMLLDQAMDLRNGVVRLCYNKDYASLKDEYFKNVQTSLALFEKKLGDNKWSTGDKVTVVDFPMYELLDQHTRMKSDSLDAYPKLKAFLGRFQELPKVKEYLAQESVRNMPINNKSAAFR

Row | Km ([1]; read-out: Km) [µM] | Structure (SMILES) | Kcat [1] [s⁻¹] | Km ([2]; read-out: Km) [µM] | Km [1] [µM] | Km [2] [µM]
1 | 540 | N[C@@H](CCC(=O)N[C@@H](CS)C(=O)NCC(=O)O)C(=O)O [GSH, glutathione] | 186.9 | 1030 | – | –
2 | – | O=[N+]([O-])c1ccc(Cl)c([N+](=O)[O-])c1 [CDNB, 1-Chloro-2,4-dinitrobenzene] | 195.4 | – | 470 | 560
